The conditions of series [1]: cited from earlier work.
The conditions of series [2]: cited from earlier work. This is another data set of the same source.
Series [3] is classed as physicochemical. The method, then:
To evaluate buffers with different pH, Dexamethasone sodium phosphate can be dissolved in an elution media (e.g. one of the different embodiments of the invention disclosed herein). […] This concentration was about 10 times the concentration that might be observed if the drug from the typical device was completely eluted in about 75 mL of media.

Series [4] is described as follows: Elution of dexamethasone sodium phosphate from drug coated pace maker leads in conventional media. Type of series: physicochemical. Particulars: e.g. a media that utilizes just a surfactant. The text has this:
The data disclosed in FIGS. 1-6 provides illustrative embodiments of the methods of invention that examine the elution of dexamethasone sodium phosphate from a polymeric silicone matrix. These examples provide an illustration of the power of the methodological embodiments of the invention, in particular in view of the fact that the elution of dexamethasone sodium phosphate from silicone polymer/drug coated pace maker leads is known to be minimal in conventional solvents. For example, certain elution media and methods may not be ideal for all drugs (e.g. dexamethasone sodium phosphate). For example, dexamethasone sodium phosphate is water soluble whereas typical methodologies described in the art are more suitable for water insoluble or sparingly soluble drugs. […]
While the methodological embodiments of the invention can be used to assess the elution of a wide variety of compounds from a wide variety of matrices, these methods of the invention are particularly useful in the context of the manufacture of drug eluting implantable medical devices. For example, the safety and efficacy of drug coated pace maker leads are readily evaluated using the unique dissolution methods and materials disclosed herein. […]

Structures are written as SMILES. Read-outs that look alike come from different tables or passages of the source.

Consider `OCc1ccccc1` [Benzyl alcohol, Phenylmethanol], for which, in series [1] (alcohols and ether), the “miscibility in alcohols and ether” value was “completely miscible”. Besides, in series [1], the solubility in water is 4 g/100 mL.

On to `C[C@@H]1C[C@H]2[C@@H]3CCC4=CC(=O)C=C[C@]4(C)[C@@]3(F)[C@@H](O)C[C@]2(C)[C@@]1(O)C(=O)COP(=O)(O)O` [Dexamethasone sodium phosphate], for which the solubility in water result is reported as “freely soluble in water” in series [1] (in words) and “water soluble” in series [1] (in words, listed as dexamethasone sodium phosphate). Further, the “elution from silicone polymer/drug coated pace maker leads in conventional solvents” value in series [2] was “minimal”. The “stability with respect to pH (rank order)” value in series [3] is recorded as “pH 4>pH 7.5>pH 9”. The “elution of the drug in conventional media systems” value in series [4] is given as “minimal”.
